Test in all cases: NCI tumour cell line growth inhibition, 48 h
Assay [1] relates to HL-60(TB) leukemia.
Assay [2] has as its system SN12C renal.
Assay [3] relates to NCI-H226 lung.
Assay [4] relates to ACHN renal.
Assay [5] relates to OVCAR-5 ovarian.
Assay [6] concerns KM12 colon.
Assay [7] relates to CCRF-CEM leukemia.
The subject of assay [8] is TK-10 renal.
The subject of assay [9] is NCI-H23 lung.
The subject of assay [10] is SF-539 CNS.

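Grown in 96-well plates, cells were treated for 48 hours with each compound at five concentrations. Insufficient inhibition: endpoint recorded as highest concentration tested. Here, GI50 denotes the concentration required for 50% inhibition of growth. The concentration for full growth arrest is given as TGI.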 A value given as a limit tells only on which side of the number the result lay.

Consider `COc1cc2ccn3c4cc(OC)c(OC)cc4cc3c2cc1OC`, for which the TGI in assay [1], in assay [2], in [3], in assay [4], in [5] and in assay [6] was > 100 µM in each case. The TGI in assay [7], in [8] and in [9] was > 100 µM throughout.
For `CC(=O)NC1C(OCc2ccccc2)OC(COC(=O)CCCCCCCCCCNC(=O)c2cccc3c(=O)c4ccccc4[nH]c23)C(O)C1OC(C)C(=O)NC(C)C(=O)NC(CCC(N)=O)C(N)=O` (stereo not drawn), the TGI in [1], in [2], in [3], in assay [4], in assay [5] and in [6] was > 100 µM throughout. The TGI in assay [8], in assay [10] and in assay [9] was > 100 µM throughout.
Consider `COc1ccc(C[C@H]2C[C@@H](O)[C@@H](C)C/C=C/Cc3cccc(O)c3C(=O)O2)cn1`, for which the GI50 is 15.3 µM in assay [1]; 19.4 µM in [2]; 27.3 µM in assay [3]; 25.5 µM in assay [4]; 19 µM in assay [5]; 23.5 µM in assay [6]. Further, the GI50 in assay [8] was 24.5 µM; in assay [10], 17.9 µM; in assay [9], 24.2 µM. The TGI is 38.4 µM in [1]; 43.9 µM in assay [2]; > 100 µM in assay [3]; 65.9 µM in assay [4]; 37.2 µM in [5]; 62.4 µM in assay [6]. Further, the figures for the TGI in assay [8], in [10] and in assay [9] were 72.3 µM, 37.8 µM and 56.8 µM, respectively.
Take `CC(CS(=O)(=O)Cc1ccccc1)C(N)=O` (stereo not drawn): the TGI in [1], in assay [2], in assay [3], in [4], in [5] and in [6] was > 100 µM in each case. Also, the TGI in assay [8], in assay [10] and in [9] was > 100 µM throughout.
As for `COC(=O)C12CC(C3CC31)C1CC12` (stereo not drawn), the TGI in assay [1], in [2], in assay [3], in [4], in assay [5] and in assay [7] was > 100 µM each time. For the same compound, the TGI in assay [8] and in assay [9] was > 100 µM each time.
Regarding `COc1ccc(C2=CC(c3cc(OC)c(OC)c(OC)c3)n3ncnc3N2)cc1` (stereo not drawn), the GI50 was 0.0252 µM in [1]; 0.141 µM in assay [2]; 7.99 µM in assay [3]; 0.152 µM in [4]; 0.502 µM in [5]; 0.0402 µM in [6]. Further, the results for the GI50 in assay [7], in [8] and in [9] were 0.0425 µM, 13 µM and 0.0875 µM, respectively. In addition, the TGI was 0.0612 µM in [1]; > 100 µM in [2]; 71 µM in assay [3]; 43.9 µM in assay [4]; > 100 µM in [5]; 18.9 µM in assay [6]. Moreover, the TGI in [7] is > 100 µM; in assay [8], 31.7 µM; in [9] it was 42 µM.
In the case of `CN1CCCC1c1cccnc1.O=C(O)c1ccccc1O.O=C([O-])c1ccccc1[OH2+].O=C([O-])c1ccccc1[OH2+].O=C([O-])c1ccccc1[OH2+].[Mn+2]` (stereo not drawn), the GI50 was > 100 µM in [1]; > 100 µM in [2]; > 100 µM in assay [3]; > 100 µM in [4]; 63.5 µM in [5]; > 100 µM in assay [6]. Moreover, the GI50 in [7] is 23.3 µM; in assay [8] it was > 100 µM; in assay [9], > 100 µM. For the same compound, the TGI in assay [1], in assay [2], in [3], in assay [4], in assay [5] and in assay [6] was > 100 µM each time. In addition, the TGI in assay [7], in assay [8] and in [9] was > 100 µM each time.
With `CO[C@H]1C=C[C@]23c4cc5c(cc4CN(CC2O)[C@@H]3C1)OCO5` (stereo partly drawn), the TGI is 0.32 µM in assay [1]; 29.4 µM in assay [2]; 61.3 µM in assay [3]; 6.73 µM in [4]; > 100 µM in assay [5]; 28.3 µM in assay [6]. Also, the TGI in assay [8] was > 100 µM; in [10], 14.6 µM; in assay [9], 33 µM.
